Measured values: patent US20210369699A1, “TREATMENT OF LUPUS ERYTHEMATOSUS USING S-HYDROXYCHLOROQUINE” (Genovate Biotechnology Co. Ltd., priority 2020, published 2021)
Where two headings read alike, the source gives them in different places.

What was measured:
[1] = tested on: IL-17 production in human peripheral blood mononuclear cells (PBMC); assay: IL-17 production in PMA/ionomycin-stimulated PBMC (ELISA); assay type: cell-based; settings: for (%) inhibition / inhibition at 25 µM / inhibition at 50 µM / inhibition at 100 µM / inhibition at 5 µM: IL-17 synthesis; for IL-17 pg/mL (mean ± SD): n = 3; for inhibition at 25 µM / inhibition at 50 µM / inhibition at 100 µM / inhibition at 5 µM: PBMC
Description: Hydroxychloroquine (HCQ) and its pure optical isomers S-hydroxychloroquine (S-HCQ; enantiomeric excess of 99.0%) and R-hydroxychloroquine (R-HCQ; enantiomeric excess of 98.3%) were tested in an in vitro pharmacodynamic assay to determine their efficacy at inhibiting interleukin 17 (IL-17) production in human peripheral blood mononuclear cells (PBMC) stimulated with phorbol myristate acetate (PMA) and ionomycin.
Cells were cultured at 37° C. with 5% CO2 in RPMI-1640 medium (Gibco, 11875-093) supplemented with 10% Fetal Bovine Serum (Gibco, 10437-028), 10 mM HEPES (Gibco, 15630-080), and 100 U/mL Penicillin/Streptomycin (Gibco, 15140-122).
PBMC were seeded at a density of 10^6 cells/ml in each well of a 96-well round bottom microplate (Corning, 7007) then stimulated with 25 ng/ml PMA and 1 μg/ml ionomycin in the absence and presence of 25 μM, 50 μM, or 100 μM HCQ, S-HCQ or R-HCQ each dissolved in ethanol. The final concentration of ethanol in the culture medium was 0.75%. PBMC treated with 5 μM methylprednisolone served as a positive control.
After incubation for 48 or 72 hours, the cell culture supernatants were collected and stored at −80° C. until analysis. The levels of IL-17 induced by PMA/ionomycin-stimulated PBMC were analyzed using human IL-17 Quantikine ELISA Kit (R & D system, D1700) according to product information.

MRL/lpr mice [2] = assay: Survival of treated MRL/lpr mice; assay type: in vivo; settings: observed 70-80 days
Description: (§1) See Furukawa et al., 1996, J. Invest. Dermatol. 107; 95-100; Furukawa et al., 2009, Autoimmun. Rev. 8:495-499; and Shimomatsu et al., 2016, Mod. Rheumatol. 26:744-748. […] Animals were given water and food ad-libitum.
(§2) Dosing volumes were kept consistent at 10 mL/kg.
The number of live and dead mice was recorded each day beginning from the first dosing day at age 15 weeks.

MRL/lpr mice [3] = assay: Skin lesions in treated MRL/lpr mice; assay type: in vivo; settings: for mean score of skin lesions versus time (onset of skin inflammation and lesions): HCQ and R-HCQ, FIG. 3A
Description: as §1, §2
Inflammation and skin lesions in the MRL/lpr mice were scored twice per week from the regions of dorsal neck, forehead, snout, and ears using a previously described scoring scale. See Keil et al., 2016, Arthritis Res. Ther. 18:243. Briefly, animals with no skin lesions were scored as 0, those having minimal hair loss with redness and a few scattered lesions were scored as 1, and those with redness, scabbing, and hair loss with a small area of involvement were scored as 2.
The mean score of skin lesions in each group from Day 68 to Day 111 for vehicle and low dose groups and from Day 68 to Day 90 for high dose groups after first dosing were plotted and are shown in FIG. 3A.
The data was reanalyzed by comparing the average skin lesion scores for each treatment over the entire test period. The skin lesion scores from day 68 to day 111 after initial dosing were averaged for the vehicle and the low dose groups and compared, as shown in FIG. 3B. The skin lesion scores from day 68 to day 90 after initial dosing were averaged for the vehicle and the high dose groups and compared, as shown in FIG. 3C.

MRL/lpr mice [4] = assay: Blood urea nitrogen and creatinine concentration in plasma of MRL/lpr mice; assay type: in vivo; settings: end of study; for creatinine concentration in plasma: FIG. 4B
Description: as §1, §2
Plasma was prepared from blood samples collected at the end of the study. They were analyzed for blood urea nitrogen (BUN) level and creatinine concentration using a FUJI DRI-CHEM 4000i instrument as directed by the manufacturer. Elevated BUN and creatinine levels indicate compromised kidney function.

[5] = molecular target: T1, human ether-a-go-go-related gene (hERG) voltage-gated potassium channel (Homo sapiens, UniProt Q12809)
T1 sequence (Q12809 whole entry): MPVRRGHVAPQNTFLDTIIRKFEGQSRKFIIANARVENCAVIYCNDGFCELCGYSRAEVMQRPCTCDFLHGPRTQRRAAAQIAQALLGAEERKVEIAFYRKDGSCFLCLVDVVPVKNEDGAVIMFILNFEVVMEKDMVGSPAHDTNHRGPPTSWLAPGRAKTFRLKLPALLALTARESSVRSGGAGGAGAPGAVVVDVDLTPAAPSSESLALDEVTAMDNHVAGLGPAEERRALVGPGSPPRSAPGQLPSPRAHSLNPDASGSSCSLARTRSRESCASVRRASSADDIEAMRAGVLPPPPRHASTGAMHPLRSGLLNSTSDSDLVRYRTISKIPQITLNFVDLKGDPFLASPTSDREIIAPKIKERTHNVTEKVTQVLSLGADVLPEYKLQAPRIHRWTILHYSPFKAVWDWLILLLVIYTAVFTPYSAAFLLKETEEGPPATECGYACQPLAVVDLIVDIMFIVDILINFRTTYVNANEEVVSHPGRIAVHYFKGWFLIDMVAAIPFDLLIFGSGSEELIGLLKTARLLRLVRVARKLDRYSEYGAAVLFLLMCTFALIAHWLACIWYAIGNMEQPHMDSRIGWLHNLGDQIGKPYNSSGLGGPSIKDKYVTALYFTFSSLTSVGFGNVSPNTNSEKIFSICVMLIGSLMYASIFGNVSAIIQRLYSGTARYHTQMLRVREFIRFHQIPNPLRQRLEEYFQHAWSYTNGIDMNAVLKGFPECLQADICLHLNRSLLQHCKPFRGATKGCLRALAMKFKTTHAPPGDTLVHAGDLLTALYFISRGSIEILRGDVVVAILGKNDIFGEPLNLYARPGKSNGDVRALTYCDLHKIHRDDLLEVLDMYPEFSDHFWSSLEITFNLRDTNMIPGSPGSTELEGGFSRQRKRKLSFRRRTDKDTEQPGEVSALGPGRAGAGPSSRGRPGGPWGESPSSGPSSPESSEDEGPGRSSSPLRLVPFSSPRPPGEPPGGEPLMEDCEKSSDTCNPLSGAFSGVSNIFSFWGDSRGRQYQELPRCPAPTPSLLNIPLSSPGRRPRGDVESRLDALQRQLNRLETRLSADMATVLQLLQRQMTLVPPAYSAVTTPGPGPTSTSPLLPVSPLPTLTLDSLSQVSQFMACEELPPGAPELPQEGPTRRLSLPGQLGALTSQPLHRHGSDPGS
Description: (§3) A conventional patch-clamp technique was used to determine inhibitory effects on hERG. Human embryonic kidney cells (HEK-293) stably transfected with human hERG cDNA were plated on collagen-coated 35-mm cell culture dishes at low density for 1-7 days. For single-cell patch-clamp recording, the intracellular solution contained 130 mM KCl, 10 mM NaCl, 1 mM MgCl2, 10 mM EGTA, 5 mM MgATP, and 10 mM HEPES (pH adjusted to 7.2 with KOH). The extracellular solution contained acellular Solution (mM): 137 mM NaCl, 4 mM KCl, 1.8 mM CaCl2, 1 mM MgCl2, 10 mM D(+)-Glucose, and 10 mM HEPES (pH adjusted to 7.4 with NaOH). All measurements were performed at room temperature.
(§4) After cell capture, a pulse protocol was implemented that involved stepping from a holding potential of −80 mV to +40 mV for 4 s to inactivate hERG channels. The membrane voltage was then stepped back to −50 mV for 4 s to evoke a tail current prior to returning to the holding potential. This sequence was repeated with an inter-pulse interval of 20 s. […] Evoked peak tail current amplitudes were continuously monitored throughout the experiment. Each compound was applied from low to high concentrations sequentially to the same cell for five minutes.
(§5) The percent inhibition of hERG channel was calculated by comparing the tail current amplitude before and after application of the compound, the current difference being normalized to control. The amplitude of the hERG peak tail current was calculated by measuring the tail current on stepping to −50 mV. The current was measured before and after each compound addition. […] Percent inhibition values were used to calculate the IC50 for each tested compound.

[6] = Body weight of treated MRL/lpr mice
Description: Pharmacodynamics of HCQ, S-HCQ, and R-HCQ was examined in MRL/lpr mice, a model for human cutaneous lupus erythematosus. […] Eight-week old MRL/lpr mice, were purchased from Jackson Laboratory (ME, USA) and maintained on a 12 h light and dark cycle with constant temperature and humidity control. Animals were given water and food ad-libitum.
Groups of 14-15 mice were treated starting at the age of −15 weeks old with vehicle (10% EtOH in PBS), with low dose (20 mg/kg) or high dose (40 mg/kg) HCQ, S-HCQ, or R-HCQ. Mice in the vehicle and low dose groups were treated orally once daily for 16 weeks from age 15 to 31 weeks. Mice in the high dose groups were treated orally once daily for 14 weeks from age 15 to 29 weeks. Dosing volumes were kept consistent at 10 mL/kg.
MRL/lpr mice treated with vehicle or with 20 mg/kg HCQ, S-HCQ, or R-HCQ were weighed once per week from day 0 (initial day of dosing) to day 111. Animals in the 40 mg/kg groups were weighed daily from day 0 to day 90.

[7] = molecular target: T1, human ether-a-go-go-related gene (hERG) voltage-gated potassium channel; assay: In vitro cardiotoxicity assay: hERG patch-clamp in HEK-293 cells
Description: as §3, §4, §5

[8] = 25 μM, 48 h, PMA/ionomycin-stimulated PBMC
[9] = 25 μM, 72 h, PMA/ionomycin-stimulated PBMC
[10] = 50 μM, 48 h, PMA/ionomycin-stimulated PBMC
[11] = 50 μM, 72 h, PMA/ionomycin-stimulated PBMC
[12] = 100 μM, 48 h, PMA/ionomycin-stimulated PBMC
[13] = 100 μM, 72 h, PMA/ionomycin-stimulated PBMC

Compound	(%) inhibition ([1]; 25 μM, 48 h) [%]	IL-17 pg/mL (mean ± SD) [1, 8] [pg/mL]	(%) inhibition ([1]; 25 μM, 72 h) [%]	IL-17 pg/mL (mean ± SD) [1, 9] [pg/mL]	(%) inhibition ([1]; 50 μM, 48 h) [%]	IL-17 pg/mL (mean ± SD) [1, 10] [pg/mL]	(%) inhibition ([1]; 50 μM, 72 h) [%]	IL-17 pg/mL (mean ± SD) [1, 11] [pg/mL]	(%) inhibition ([1]; 100 μM, 48 h) [%]	IL-17 pg/mL (mean ± SD) [1, 12] [pg/mL]	(%) inhibition ([1]; 100 μM, 72 h) [%]	IL-17 pg/mL (mean ± SD) [1, 13] [pg/mL]	creatinine concentration in plasma (MRL/lpr mice [4]; 40 mg/kg orally once daily)	IC50 [5] [µM]	creatinine concentration in plasma (MRL/lpr mice [4]; 20 mg/kg orally once daily)	further results
CCN(CCO)CCC[C@H](C)Nc1ccnc2cc(Cl)ccc12 [S-HCQ, S-hydroxychloroquine]	13	432.6 ± 28.9	25	486.5 ± 8.9	41	292.0 ± 21.6	45	354.6 ± 52.5	57	215.0 ± 24.6	62	248.9 ± 38.9	most significant decrease in creatinine concentration	11	–	fractional survival compared to vehicle, HCQ and R-HCQ (MRL/lpr mice [2]; 20 mg/kg orally once daily, FIG. 2A): higher fractional survival; fractional survival compared to vehicle, HCQ and R-HCQ (MRL/lpr mice [2]; 40 mg/kg orally once daily, FIG. 2B): higher fractional survival; average skin lesion score over the test period vs vehicle (MRL/lpr mice [3]; 20 mg/kg (low dose), day 68 to day 111, t-test p<0.005, FIG. 3B): significantly reduced skin lesion scores; mean score of skin lesions versus time (onset of skin inflammation and lesions) (MRL/lpr mice [3]; 20 mg/kg orally once daily, Day 68 to Day 111, compared to vehicle): superior in reducing the onset of skin inflammation and lesions; average skin lesion score over the test period vs vehicle (MRL/lpr mice [3]; 40 mg/kg (high dose), day 68 to day 90, t-test p<0.005, FIG. 3C): significantly reduced skin lesion scores; mean score of skin lesions versus time (onset of skin inflammation and lesions) (MRL/lpr mice [3]; 40 mg/kg orally once daily, Day 68 to Day 90, compared to vehicle): superior in reducing the onset of skin inflammation and lesions; blood urea nitrogen (BUN) level in plasma (MRL/lpr mice [4]; 40 mg/kg orally once daily, compared to any other treatments, FIG. 4A): significantly lower
CCN(CCO)CCCC(C)Nc1ccnc2cc(Cl)ccc12 (racemic) [HCQ, Hydroxychloroquine]	–	480.4 ± 13.1	–	502.4 ± 20.7	–	344.8 ± 12.2	–	341.1 ± 47.4	–	214.5 ± 15.3	–	203.0 ± 10.8	–	–	lower	inhibition at 25 µM ([1]; Homo sapiens, 25 μM, 48 h): 3%; inhibition at 25 µM ([1]; Homo sapiens, 25 μM, 72 h): 23%; inhibition at 50 µM ([1]; Homo sapiens, 50 μM, 48 h): 30%; inhibition at 50 µM ([1]; Homo sapiens, 50 μM, 72 h): 48%; inhibition at 100 µM ([1]; Homo sapiens, 100 μM, 48 h): 57%; inhibition at 100 µM ([1]; Homo sapiens, 100 μM, 72 h): 69%; IC50 ([1]; Homo sapiens, PMA/ionomycin-stimulated PBMC, 48 h or 72 h, read-out: absolute IC50 of IL-17 inhibition): 50 to 100 µM; mean body weight vs vehicle ([6]; 20 mg/kg orally once daily, day 0 to day 111, FIG. 1A): No obvious difference in mean body weight; mean body weight vs vehicle ([6]; 40 mg/kg orally once daily, day 0 to day 90, FIG. 1B): No obvious difference in mean body weight; IC50 [7]: 4.84 µM
CCN(CCO)CCCC(C)Nc1ccnc2cc(Cl)ccc12 (stereo not drawn) [R-HCQ, R-hydroxychloroquine]	5	471.6 ± 32.9	13	564.0 ± 72.9	42	289.4 ± 34.7	50	326.8 ± 33.6	69	154.0 ± 18.1	72	179.2 ± 31.8	lower	4.2	lower	–
C[C@H]1C[C@@H]2[C@H]([C@@H](O)C[C@@]3(C)[C@H]2CC[C@]3(O)C(=O)CO)[C@@]2(C)C=CC(=O)C=C12 [methylprednisolone]	–	–	–	–	–	–	–	–	–	–	–	–	–	–	–	IL-17 pg/mL (mean ± SD) ([1]; 5 μM, 48 h, PMA/ionomycin-stimulated PBMC): 266.7 ± 15.3 pg/mL; IL-17 pg/mL (mean ± SD) ([1]; 5 μM, 72 h, PMA/ionomycin-stimulated PBMC): 282.0 ± 37.6 pg/mL; inhibition at 5 µM ([1]; Homo sapiens, 5 μM, 48 h): 46%; inhibition at 5 µM ([1]; Homo sapiens, 5 μM, 72 h): 57%
